Emax, EC50 and melting point data for 7 compounds are collected here from patent US20110207773A1, “NOVEL PHENYL-QUINOLINE-CARBOXYLIC ACID PYRIDINE DERIVATIVES USEFUL AS MODULATORS OF NICOTINIC ACETYLCHOLINE RECEPTORS” (NEUROSEARCH A/S, priority 2008, published 2011).

The structures appear in SMILES notation.

Data set [1] deals with T1, wild-type nAChR α7 receptors (Homo sapiens, UniProt P36544).
T1 construct: expressed in transfected cells; host or cells: Xenopus laevis oocytes
The data set is described as follows: Positive modulation of nAChR α7 currents in Xenopus laevis oocytes, two-electrode voltage clamp. The format is cell-based. Conditions: nAChR α7 expressed in Xenopus laevis oocytes, clamped at −60 mV, 100 μM acetylcholine; for Emax: (test-control)/control×100%, read-out: calculated EC50 Imax (maximal modulation of the control response); for EC50: test compound 0.01-31.6 μM, read-out: calculated EC50 (positive modulation of acetylcholine-induced current). The method, then:
In this example the positive modulation of wild-type nAChR α7 receptors by Compounds 4 and 5, representative of the invention, was determined using nAChR α7 receptors heterologously expressed in Xenopus laevis oocytes.
The electrical current through the nAChR α7 channel was measured using conventional two-electrode voltage clamp and nAChR α7 currents were activated by applying pulses of agonist-containing solution onto the nAChR α7 expressing oocyte.
In brief, the oocytes were placed in a recording chambers and continuously super-fused with an Oocyte Ringer (OR) solution containing 90 mM NaCl, 2.5 mM KCl, 2.5 mM CaCl2, 1 mM MgCl2 and 5 mM HEPES (pH adjusted to 7.4). The oocytes were clamped at −60 mV and currents were induced by applying 20 s pulses of 100 μM acetylcholine dissolved in OR. The intervals between the acetylcholine applications were 5 minutes, during which the oocytes were washed with OR. The first three applications were control applications to insure a constant response level of 100 μM acetylcholine. For the subsequent test applications, increasing concentrations (0.01-31.6 μM) of the test compound were applied 30 s before and during the acetylcholine (100 μM) application, which caused a robust increase in the acetylcholine-induced current amplitude.
The positive modulation in the presence of Compound 4 was calculated as (test-control)/control×100% and the concentration response curve for this positive modulation was fitted to the sigmoidal logistic equation: I=Imax/(1+(EC50/[compound])^n), where Imax represents the maximal modulation of the control response, EC50 is the concentration causing a half maximal response, and n is the slope coefficient.

T1 sequence (P36544 23-502): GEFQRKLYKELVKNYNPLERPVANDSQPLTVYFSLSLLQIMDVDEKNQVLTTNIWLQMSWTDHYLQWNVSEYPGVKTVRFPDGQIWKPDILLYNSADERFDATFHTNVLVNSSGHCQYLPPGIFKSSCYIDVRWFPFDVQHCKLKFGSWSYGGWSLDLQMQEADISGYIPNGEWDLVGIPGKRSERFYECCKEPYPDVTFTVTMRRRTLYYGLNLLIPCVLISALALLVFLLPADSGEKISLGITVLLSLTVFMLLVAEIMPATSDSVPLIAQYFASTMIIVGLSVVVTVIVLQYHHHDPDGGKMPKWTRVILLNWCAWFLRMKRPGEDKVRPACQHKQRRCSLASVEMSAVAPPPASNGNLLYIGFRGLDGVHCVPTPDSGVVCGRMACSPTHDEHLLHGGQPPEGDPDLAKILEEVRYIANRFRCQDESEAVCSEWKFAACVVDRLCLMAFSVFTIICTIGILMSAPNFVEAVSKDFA

Usually EC50 stands for the concentration that produces a half-maximal response. As for `COc1ccc(-c2cc(C(=O)Nc3cccc(F)n3)c3ccccc3n2)cc1` [Compound 4, 2-(4-Methoxy-phenyl)-quinoline-4-carboxylic acid (6-fluoro-pyridin-2-yl)-amide], in data set [1], the Emax was 283% and the EC50 was 3.7 µM.
For `COc1ccc(-c2cc(C(=O)Nc3cccc(F)n3)c3ccccc3n2)cc1OC` [Compound 5, 2-(3,4-Dimethoxy-phenyl)-quinoline-4-carboxylic acid (6-fluoro-pyridin-2-yl)-amide], in that order: 197% and 1.2 µM.
The melting point is the temperature of the solid-liquid transition. In the case of `Cc1ccc(NC(=O)c2cc(-c3ccc(Br)cc3)nc3ccccc23)nc1` [Compound 7, 2-(4-Bromo-phenyl)-quinoline-4-carboxylic acid (5-methyl-pyridin-2-yl)-amide], the melting point was in the range of 182.4 to 183.7 °C.
Still for that read-out and setting: then `COc1ccc(-c2cc(C(=O)Nc3cccc(F)n3)c3cccc(F)c3n2)cc1` [Compound 8, 8-Fluoro-2-(4-methoxy-phenyl)-quinoline-4-carboxylic acid (6-fluoro-pyridin-2-yl)-amide], with 201.8 to 202.8 °C; and `O=C(Nc1cccc(F)n1)c1cc(-c2ccc(O)cc2)nc2c(F)cccc12` [Compound 9, 8-Fluoro-2-(4-hydroxy-phenyl)-quinoline-4-carboxylic acid (6-fluoro-pyridin-2-yl)-amide], with 254 to 256 °C.
On the same count and under the same terms, then `COc1ccc(-c2cc(C(=O)Nc3cccc(F)n3)c3cc(F)ccc3n2)cc1` [Compound 10, 6-Fluoro-2-(4-methoxy-phenyl)-quinoline-4-carboxylic acid (6-fluoro-pyridin-2-yl)-amide], with 161.2 to 162.9 °C.
The same measure, in the same setting: then `O=C(Nc1cccc(F)n1)c1cc(-c2ccc3c(c2)OCCO3)nc2ccccc12` [Compound 13, 2-(2,3-Dihydro-benzo[1,4]dioxin-6-yl)-quinoline-4-carboxylic acid (6-fluoro-pyridin-2-yl)-amide], with 209.9 to 210.6 °C.
